Columns and labels:
Assay in all cases: relative viability (nuclei count vs DMSO), 5 days (fraction); higher = more cells survive
[1] = compound: C1CN(CCC1C(C2=CC3=C(C=C2)OCO3)(C4=CC5=C(C=C4)OCO5)O)C(=O)OC6=CC=C(C=C6)[N+](=O)[O-] [JZL-184]
How it was run: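 Viability here means nuclei in treated wells divided by nuclei in vehicle wells, reported as the median across plates. Only plates with control CV below 25% and at least one doubling passed. Lung cancer cell lines in 1536-well plates were exposed to five √10-spaced library-drug doses for 5 days and counted from 4× Hoechst images in MetaXpress.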

[2] = compound: C1CN(CCC1C(C2=CC3=C(C=C2)OCO3)(C4=CC5=C(C=C4)OCO5)O)C(=O)OC6=CC=C(C=C6)[N+](=O)[O-] [JZL-184] + CC(C)C[C@H](NC(=O)[C@H](Cc1ccccc1)NC(=O)c1cnccn1)B(O)O [Bortezomib] (partner 0.002 µM)
How it was run: (§1)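 Relative viability equals treated-well nuclei counts divided by vehicle-well nuclei counts. Counts came from 4× images of lung cancer cell lines grown in 1536-well plates for 5 days after pin-tool dosing on the day after seeding. Dosing used one drug alone or a fixed anchor-drug dose plus five library-drug doses (not always all listed) in √10 steps, and values are medians of duplicate plates.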

[3] = compound: C1CN(CCC1C(C2=CC3=C(C=C2)OCO3)(C4=CC5=C(C=C4)OCO5)O)C(=O)OC6=CC=C(C=C6)[N+](=O)[O-] [JZL-184] + CCNC(=O)c1noc(-c2cc(C(C)C)c(O)cc2O)c1-c1ccc(CN2CCOCC2)cc1 [Luminespib] (partner 0.01 µM)
How it was run: as §1

[4] = compound: C1CN(CCC1C(C2=CC3=C(C=C2)OCO3)(C4=CC5=C(C=C4)OCO5)O)C(=O)OC6=CC=C(C=C6)[N+](=O)[O-] [JZL-184] + COc1cc2c(Oc3ccc(NC(=O)C4(C(=O)Nc5ccc(F)cc5)CC4)cc3F)ccnc2cc1OCCCN1CCOCC1 [Foretinib] (partner 0.25 µM)
How it was run: as §1

[5] = compound: C1CN(CCC1C(C2=CC3=C(C=C2)OCO3)(C4=CC5=C(C=C4)OCO5)O)C(=O)OC6=CC=C(C=C6)[N+](=O)[O-] [JZL-184] + COc1cccc2cc(-c3nc([C@H]4CC[C@H](C(=O)O)CC4)n4ncnc(N)c34)[nH]c12 [OSI-027] (partner 0.5 µM)
How it was run: as §1

[6] = compound: C1CN(CCC1C(C2=CC3=C(C=C2)OCO3)(C4=CC5=C(C=C4)OCO5)O)C(=O)OC6=CC=C(C=C6)[N+](=O)[O-] [JZL-184] + CS(=O)(=O)CCNCc1ccc(-c2ccc3ncnc(Nc4ccc(OCc5cccc(F)c5)c(Cl)c4)c3c2)o1 [Lapatinib] (partner 2 µM)
How it was run: as §1

[7] = compound: C1CN(CCC1C(C2=CC3=C(C=C2)OCO3)(C4=CC5=C(C=C4)OCO5)O)C(=O)OC6=CC=C(C=C6)[N+](=O)[O-] [JZL-184] + CS(=O)(=O)N1CCN(Cc2cc3nc(-c4cccc5[nH]ncc45)nc(N4CCOCC4)c3s2)CC1 [Pictilisib] (partner 1 µM)
How it was run: as §1

[8] = compound: C1CN(CCC1C(C2=CC3=C(C=C2)OCO3)(C4=CC5=C(C=C4)OCO5)O)C(=O)OC6=CC=C(C=C6)[N+](=O)[O-] [JZL-184] + C[C@@H](Oc1cc(-c2cnn(C3CCNCC3)c2)cnc1N)c1c(Cl)ccc(F)c1Cl [Crizotinib] (partner 1 µM)
How it was run: as §1

[9] = compound: C1CN(CCC1C(C2=CC3=C(C=C2)OCO3)(C4=CC5=C(C=C4)OCO5)O)C(=O)OC6=CC=C(C=C6)[N+](=O)[O-] [JZL-184] + C[C@]1(O)C[C@@H](c2nc(-c3ccc4ccc(-c5ccccc5)nc4c3)c3c(N)nccn32)C1 [Linsitinib] (partner 1 µM)
How it was run: as §1

[10] = compound: C1CN(CCC1C(C2=CC3=C(C=C2)OCO3)(C4=CC5=C(C=C4)OCO5)O)C(=O)OC6=CC=C(C=C6)[N+](=O)[O-] [JZL-184] + Cc1nc(NC(=O)N2CCC[C@H]2C(N)=O)sc1-c1ccnc(C(C)(C)C(F)(F)F)c1 [Alpelisib] (partner 2 µM)
How it was run: as §1

[11] = compound: C1CN(CCC1C(C2=CC3=C(C=C2)OCO3)(C4=CC5=C(C=C4)OCO5)O)C(=O)OC6=CC=C(C=C6)[N+](=O)[O-] [JZL-184] + Cc1nc(Nc2ncc(C(=O)Nc3c(C)cccc3Cl)s2)cc(N2CCN(CCO)CC2)n1 [Dasatinib] (partner 0.075 µM)
How it was run: as §1

[12] = compound: C1CN(CCC1C(C2=CC3=C(C=C2)OCO3)(C4=CC5=C(C=C4)OCO5)O)C(=O)OC6=CC=C(C=C6)[N+](=O)[O-] [JZL-184] + N=C(N)NC(=N)NCCc1ccccc1 [Phenformin] (partner 250 µM)
How it was run: as §1

[13] = compound: C1CN(CCC1C(C2=CC3=C(C=C2)OCO3)(C4=CC5=C(C=C4)OCO5)O)C(=O)OC6=CC=C(C=C6)[N+](=O)[O-] [JZL-184] + Nc1nc2[nH]cc(CCc3ccc(C(=O)N[C@@H](CCC(=O)O)C(=O)O)cc3)c2c(=O)[nH]1 [Pemetrexed] (partner 0.2 µM)
How it was run: as §1

[14] = compound: C1CN(CCC1C(C2=CC3=C(C=C2)OCO3)(C4=CC5=C(C=C4)OCO5)O)C(=O)OC6=CC=C(C=C6)[N+](=O)[O-] [JZL-184] + Cc1cc(Nc2cc(N3CCN(C)CC3)nc(Sc3ccc(NC(=O)C4CC4)cc3)n2)n[nH]1 [Tozasertib] (partner 0.1 µM)
How it was run: as §1

NCI-H1563
relative viability ([1]; 0.04 µM): 0.943 | relative viability ([1]; 0.4 µM): 1.05 | relative viability ([1]; 1.265 µM): 1.02 | relative viability ([1]; 4 µM): 0.934 | relative viability ([2]; first compound 0.04 µM): 0.79 | relative viability ([2]; first compound 0.4 µM): 0.797 | relative viability ([2]; first compound 1.265 µM): 0.86 | relative viability ([2]; first compound 4 µM): 0.933 | relative viability ([3]; first compound 0.04 µM): 0.513 | relative viability ([3]; first compound 0.4 µM): 0.571 | relative viability ([3]; first compound 1.265 µM): 0.535 | relative viability ([3]; first compound 4 µM): 0.511 | relative viability ([4]; first compound 0.04 µM): 0.937 | relative viability ([4]; first compound 0.4 µM): 0.888 | relative viability ([4]; first compound 1.265 µM): 0.897 | relative viability ([4]; first compound 4 µM): 0.959 | relative viability ([5]; first compound 0.04 µM): 0.794 | relative viability ([5]; first compound 0.4 µM): 0.729 | relative viability ([5]; first compound 1.265 µM): 0.776 | relative viability ([5]; first compound 4 µM): 0.7 | relative viability ([6]; first compound 0.04 µM): 0.951 | relative viability ([6]; first compound 0.4 µM): 0.923 | relative viability ([6]; first compound 1.265 µM): 0.972 | relative viability ([6]; first compound 4 µM): 0.868 | relative viability ([7]; first compound 0.04 µM): 0.673 | relative viability ([7]; first compound 0.4 µM): 0.676 | relative viability ([7]; first compound 1.265 µM): 0.669 | relative viability ([7]; first compound 4 µM): 0.675 | relative viability ([8]; first compound 0.04 µM): 0.931 | relative viability ([8]; first compound 0.4 µM): 0.903 | relative viability ([8]; first compound 1.265 µM): 0.868 | relative viability ([8]; first compound 4 µM): 0.88 | relative viability ([9]; first compound 0.04 µM): 1.24 | relative viability ([9]; first compound 0.4 µM): 1.31 | relative viability ([9]; first compound 1.265 µM): 1.21 | relative viability ([9]; first compound 4 µM): 1.09 | relative viability ([10]; first compound 0.04 µM): 0.934 | relative viability ([10]; first compound 0.4 µM): 0.964 | relative viability ([10]; first compound 1.265 µM): 0.899 | relative viability ([10]; first compound 4 µM): 0.914 | relative viability ([11]; first compound 0.04 µM): 0.515 | relative viability ([11]; first compound 0.4 µM): 0.374 | relative viability ([11]; first compound 1.265 µM): 0.453 | relative viability ([11]; first compound 4 µM): 0.474 | relative viability ([12]; first compound 0.04 µM): 0.694 | relative viability ([12]; first compound 0.4 µM): 0.636 | relative viability ([12]; first compound 1.265 µM): 0.681 | relative viability ([12]; first compound 4 µM): 0.64 | relative viability ([13]; first compound 0.04 µM): 0.851 | relative viability ([13]; first compound 0.4 µM): 0.776 | relative viability ([13]; first compound 1.265 µM): 0.821 | relative viability ([13]; first compound 4 µM): 0.739

NCI-H1623
relative viability ([1]; 0.04 µM): 0.941 | relative viability ([1]; 0.4 µM): 0.988 | relative viability ([1]; 1.265 µM): 1 | relative viability ([1]; 4 µM): 0.937 | relative viability ([3]; first compound 0.04 µM): 0.389 | relative viability ([3]; first compound 0.4 µM): 0.411 | relative viability ([3]; first compound 1.265 µM): 0.626 | relative viability ([3]; first compound 4 µM): 0.585 | relative viability ([4]; first compound 0.04 µM): 0.904 | relative viability ([4]; first compound 0.4 µM): 0.818 | relative viability ([4]; first compound 1.265 µM): 0.944 | relative viability ([4]; first compound 4 µM): 0.807 | relative viability ([5]; first compound 0.04 µM): 0.463 | relative viability ([5]; first compound 0.4 µM): 0.438 | relative viability ([5]; first compound 1.265 µM): 0.464 | relative viability ([5]; first compound 4 µM): 0.446 | relative viability ([14]; first compound 0.04 µM): 0.453 | relative viability ([14]; first compound 0.4 µM): 0.442 | relative viability ([14]; first compound 1.265 µM): 0.442 | relative viability ([14]; first compound 4 µM): 0.482 | relative viability ([11]; first compound 0.04 µM): 0.512 | relative viability ([11]; first compound 0.4 µM): 0.561 | relative viability ([11]; first compound 1.265 µM): 0.573 | relative viability ([11]; first compound 4 µM): 0.47 | relative viability ([12]; first compound 0.04 µM): 0.566 | relative viability ([12]; first compound 0.4 µM): 0.551 | relative viability ([12]; first compound 1.265 µM): 0.595 | relative viability ([12]; first compound 4 µM): 0.565

Reference: the supplement of paper PMC10307832
